Measured values: patent publication US6569897B1, “Alkenyldiarylmethane non-nucleoside HIV-1 reverse transcriptase inhibitors” (priority 1998, dated 2003)
Read-outs that look alike come from different tables or passages of the source.

Columns and labels:
[1] = in vitro; settings: human, uninfected (mock-infected) CEM-SS cells
[2] = system: HIV-1RF in CEM-SS cells; test: microbe, parasite or virus in culture; settings: Human immunodeficiency virus 1, CEM-SS, read-out: EC50 (μM), 50% inhibitory concentration for cytopathicity
[3] = system: HIV-1RF in CEM-SS cells
[4] = system: HIV-1 RF in CEM-SS; test: microbe, parasite or virus in culture; format: cell-based; settings: Human immunodeficiency virus 1, CEM-SS
[5] = system: HIV-1 IIIB in CEM-SS; test: microbe, parasite or virus in culture; format: cell-based; settings: Human immunodeficiency virus 1, IIIB
[6] = system: HIV-1 TEKI in PBMC; test: microbe, parasite or virus in culture; format: cell-based; settings: Human immunodeficiency virus 1, PBMC
[7] = system: HIV-1 ROJO in PBMC; test: microbe, parasite or virus in culture; format: cell-based; settings: Human immunodeficiency virus 1, PBMC
[8] = system: HIV-1 Clade A in PBMC; test: microbe, parasite or virus in culture; format: cell-based; settings: Human immunodeficiency virus 1, PBMC
[9] = system: HIV-1 Clade B in PBMC; test: microbe, parasite or virus in culture; format: cell-based; settings: Human immunodeficiency virus 1, PBMC
[10] = system: HIV-1 Clade C in PBMC; test: microbe, parasite or virus in culture; format: cell-based; settings: Human immunodeficiency virus 1, PBMC
[11] = system: HIV-1 Clade D in PBMC; test: microbe, parasite or virus in culture; format: cell-based; settings: Human immunodeficiency virus 1, PBMC
[12] = system: HIV-1 Clade E in PBMC; test: microbe, parasite or virus in culture; format: cell-based; settings: Human immunodeficiency virus 1, PBMC
[13] = system: HIV-I Clade F in PBMC; test: microbe, parasite or virus in culture; format: cell-based; settings: Human immunodeficiency virus 1, PBMC
[14] = system: HIV-1 Ba-L in Mono/Mac; test: microbe, parasite or virus in culture; format: cell-based; settings: Human immunodeficiency virus 1, BAL
[15] = system: HIV-1 IIIB Wild Type; test: microbe, parasite or virus in culture; format: cell-based; settings: Human immunodeficiency virus 1, IIIB
[16] = system: 129/Cost isolate, RT K103N; format: cell-based, HIV-1
[17] = system: 3TC isolate, RT M184I; format: cell-based
[18] = system: HIV-1 NL4-3 Wildtype; test: microbe, parasite or virus in culture; format: cell-based; settings: Human immunodeficiency virus 1, NL43, CEM-SS
[19] = system: HIV-1 NL4-3, RT Y188C; format: cell-based
[20] = system: HIV-1 NL4-3, RT K101E; format: cell-based
[21] = system: HIV-1 NL4-3, RT A98G; format: cell-based
[22] = system: HIV-1 NL4-3, RT L74V; format: cell-based
[23] = system: HIV-1 NL4-3, RT V108I; format: cell-based
[24] = system: HIV-1 NL4-3, RT V106A; format: cell-based
[25] = system: HIV-1RF in CEM-SS cells; settings: reported previously; cited from earlier work

Work on `COC(=O)C=C(c1cc(Cl)c(OC)c(C(=O)OC)c1)c1cc(Cl)c(OC)c(C(=O)OC)c1` [Compound 15, Methyl 3′,3″-Dichloro-4′,4″-dimethoxy-5,5Δ-bis(methoxycarbonyl)-3,3-diphenylpropenoate] yielded a CC50 [1] of 25 µM and an EC50 [2] of over 6.9 µM.
In the case of `COC(=O)c1cc(C(=CCCO)c2cc(Br)c(OC)c(C(=O)OC)c2)cc(Br)c1OC` [Compound 7, 3′,3″-Dibromo-4-hydroxy-4′,4″dimethoxy-5′,5″-bis(methoxycarbony)-1,1-diphenyl-1-butene], the “TI, therapeutic index (CC50 divided by EC50)” value ([3]; HIV-1RF, CEM-SS cells) is reported as over 52, the CC50 [1] is reported as over 316 µM and the EC50 [2] is reported as 6 µM.
`C=C(c1cc(Br)c(OC)c(C(=O)OC)c1)c1cc(Br)c(OC)c(C(=O)OC)c1` [Compound 3, 3′,3″-Dibromo-4′,4″-dimethoxy-5′,5″-bis(methoxycarbonyl)-1,1-diphenylethene] gave a melting point of 144 to 145 °C, a CC50 [1] of 316 µM and an EC50 [2] of over 6.9 µM.
For `CCCCCC=C(c1cc(I)c(OC)c(C(=O)OC)c1)c1cc(I)c(OC)c(C(=O)OC)c1` [Compound 40, 3′,3″-Diiodo-4′,4″-Dimethoxy-5′,5″-bis(methoxycarbonyl)-1,1-diphenyl-1-heptene], the “inhibition of HIV-1 cytopathic effect (in words)” value (from here on “inhibition”) ([3]; HIV-1RF in CEM-SS cells) was “inactivity”, the CC50 [1] was over 316 µM and the EC50 [2] was over 6.9 µM.
For `COC=C(c1cc(Br)c(OC)c(C(=O)OC)c1)c1cc(Br)c(OC)c(C(=O)OC)c1` [Compound 5, 3′,3″-Dibromo-4′,4″-dimethoxy-5′,5″-bis(methoxycarbonyl)-1-methoxy-2,2-diphenylethene], the CC50 [1] was 22 µM and the EC50 [2] was over 6.9 µM.
`COC(=O)c1cc(C(=CC(=O)O)c2cc(Cl)c(OC)c(C(=O)OC)c2)cc(Cl)c1OC` [Compound 14, 3′,3″-Dichloro-4′,4″-dimethoxy-5′,5″-bis(methoxycarbonyl)-3,3-diphenylpropenoic Acid] showed a CC50 [1] of 48 µM and an EC50 [2] of over 6.9 µM.
`COC(=O)CCCC=C(c1cc(Cl)c(OC)c(C(=O)OC)c1)c1cc(Cl)c(OC)c(C(=O)OC)c1` [Compound 22, Methyl 3′,3″-Dichloro-4′,4″-dimethoxy-5,5″-bis(methoxycarbonyl)-6,6-diphenylhexenoate] gave an EC50 [4] of 0.91 µM, an EC50 [5] of 0.16 µM and an EC50 [6] of 2.2 µM. It also gave an EC50 [7] of 2.28 µM, an EC50 [8] of 1.09 µM and an EC50 [9] of 0.43 µM. It also gave an EC50 [10] of 1.04 µM, an EC50 [11] of 1.02 µM and an EC50 [12] of 0.4 µM. It also gave an EC50 [13] of 1.7 µM, an EC50 [14] of 0.36 µM and an EC50 [15] of 0.39 µM. It also gave an EC50 [16] of 10.8 µM, an EC50 [17] of 1.08 µM and an EC50 [18] of 1.78 µM. The EC50 [19] was 10.8 µM, the EC50 [20] was 3.05 µM and the EC50 [21] was 0.84 µM. It also gave an EC50 [22] of 2.23 µM, an EC50 [23] of 12 µM and an EC50 [24] of 12.7 µM. It also gave a CC50 [1] of 31.6 µM and an EC50 [2] of 0.013 µM.
With `COC(=O)c1cc(C(=CCCN=[N+]=[N-])c2cc(Br)c(OC)c(C(=O)OC)c2)cc(Br)c1OC` [Compound 9, 4-Azido-3′,3″-Dibromo-4′,4″dimethoxy-5′,5″-bis(methoxycarbony)-1,1-diphenyl-1-butene] the “TI, therapeutic index (CC50 divided by EC50)” value ([3]; HIV-1RF, CEM-SS cells) was over 278, the CC50 [1] was over 316 µM and the EC50 [2] was 1.1 µM.
For `CC1(C)OC(=O)c2cc(C(=CCCO)c3cc(Cl)c4c(c3)C(=O)OC(C)(C)O4)cc(Cl)c2O1` [Compound 30], the “inhibition” value ([3]; HIV-1RF in CEM-SS cells) was “inactive”, the CC50 [1] was 18.8 µM and the EC50 [2] was over 6.9 µM.
With `CCCCCC=C(c1ccc(OC)c(C(=O)OC)c1)c1ccc(OC)c(C(=O)OC)c1` [Compound 36, 4′,4″-Dimethoxy-3′,3″-bis(methoxycarbonyl)-1,1-diphenyl-1-heptene] the CC50 [1] was 14 µM and the EC50 [2] was over 6.9 µM.
In the case of `COc1c(Cl)cc(C(=CCC(=O)O)c2cc(Cl)c(OC)c(C(=O)O)c2)cc1C(=O)O` [Compound 23, 3′,3″-Dichloro-4′,4″-dimethoxy-5′,5″-bis(carboxy)-4,4-diphenyl-3-butenoic Acid], the CC50 [1] is reported as over 316 µM and the EC50 [2] is reported as over 6.9 µM.
In the case of `CCCCCC=C(c1cc(Cl)c(OC)c(C(=O)OC)c1)c1cc(Cl)c(OC)c(C(=O)OC)c1` [Compound 41], the “potency relative to 1” value [25] is given as “approximately half as potent as 1”.
Compound `COC(=O)c1cc(C(=CCCOS(C)(=O)=O)c2cc(Cl)c(OC)c(C(=O)OC)c2)cc(Cl)c1OC` [Compound 19, 3′,3″-Dichloro-4-methanesulfonyloxy-4′,4″dimethoxy-5′,5′-bis(methoxycarbony)-1,1-diphenyl-1-butene] has a CC50 [1] of 6.9 µM and an EC50 [2] of over 6.9 µM.
With `CCCCCC1OC1(c1cc(Br)c(OC)c(C(=O)OC)c1)c1cc(Br)c(OC)c(C(=O)OC)c1` (centres unmarked) [Compound 12, 3′,3″-Dibromo-4′,4″-dimethoxy-5′,5″-bis(methoxycarbonyl)-1,1,-diphenyl-1-heptene Epoxide] the CC50 [1] was over 100 µM and the EC50 [2] was over 6.9 µM.
With `CC=C(c1cc(Br)c(OC)c(C(=O)OC)c1)c1cc(Br)c(OC)c(C(=O)OC)c1` [Compound 4, 3′,3″-Dibromo-4′,4″-dimethoxy-5′,5″-bis(methoxycarbonyl)-1,1-diphenylpropene] the CC50 [1] was 10 µM and the EC50 [2] was over 6.9 µM.
In the case of `COC(=O)c1cc(C(=CCCN=[N+]=[N-])c2cc(Cl)c(OC)c(C(=O)OC)c2)cc(Cl)c1OC` [Compound 20, 4-Azido-3′,3″-Dichloro-4′,4″dimethoxy-5′,5′-bis(methoxycarbony)-1,1-diphenyl-1-butene], the “TI, therapeutic index (CC50 divided by EC50)” value [3] is reported as 155, the “potency relative to the bromo azide 9” value ([3]; inhibition of viral cytopathicity) is reported as “four times more potent” and the CC50 [1] is reported as 41.8 µM. The EC50 [2] was 0.27 µM.
For `CC1(C)OC(=O)c2cc(C(=CCCBr)c3cc(Cl)c4c(c3)C(=O)OC(C)(C)O4)cc(Cl)c2O1` [Compound 31, 1-Bromo-4,4-bis(8′,8″-dichloro-2′,2′,2″,2″-tetramethyl-4′,4″-dioxo-6′,6″-0(1,3-benzodioxyl)]-3-butene], the “inhibition” value ([3]; HIV-1RF in CEM-SS cells) was “inactive”, the CC50 [1] was 176 µM and the EC50 [2] was over 6.9 µM.
For `COC(=O)c1cc(C(=CCCN)c2cc(Cl)c(OC)c(C(=O)OC)c2)cc(Cl)c1OC` [Compound 21, 4-Amino-3′,3″-Dichloro-4′,4″dimethoxy-5′,5″-bis(methoxycarbony)-1,1-diphenyl-1-butene], the “inhibition” value ([3]; HIV-1RF in CEM-SS cells) was “no detectable inhibitory cytopathic effect was detected”, the “inhibition” value ([3]; at 100 μM) was “inactive” and the CC50 [1] was 15 µM. For the same compound, the EC50 [2] was over 6.9 µM.
With `COC(=O)c1cc(C(=CC(=O)OC(C)(C)C)c2cc(Cl)c(OC)c(C(=O)OC)c2)cc(Cl)c1OC` [Compound 16, tert-Butyl 3′,3″-Dichloro-4′,4″-dimethoxy-5,5″-bis(methoxycarbonyl)3,3-diphenylpropenoate] the CC50 [1] was over 100 µM and the EC50 [2] was over 6.9 µM.
In the case of `COC(=O)c1cc(C(=CCCO)c2cc(Cl)c(OC)c(C(=O)OC)c2)cc(Cl)c1OC` [Compound 18, 3′,3″-Dichloro-4-hydroxy-4′,4″dimethoxy-5′,5″-bis(methoxycarbony)-1,1-diphenyl-1-butene], the “TI, therapeutic index (CC50 divided by EC50)” value ([3]; HIV-1RF, CEM-SS cells) is reported as 2, the CC50 [1] is reported as 16.8 µM and the EC50 [2] is reported as 8.6 µM.
